Test results from ChEMBL document CHEMBL4321822 (J Med Chem, 2019).
Active and inactive are the calls of the source. No cut-off for these calls is given here.

Experiments:
Cholinesterase [1] = target: T1, Cholinesterase (Homo sapiens, UniProt P06276); assay: Inhibition of human plasma BChE using butyrylthiocholine iodide as substrate preincubated for 20 mins followed by substrate addition and measured after 2.5 mins by DTNB reagent based spectrometric method
Cholinesterase [2] = target: T1, Cholinesterase; assay: Inhibition of human plasma BChE assessed as decarbamylation by measuring rate constant for enzyme recovery at IC>85 using butyrylthiocholine iodide as substrate incubated for 1 hr prior to compound dilution further incubated for 1 to 40 mins and subsequent substrate addition and measured after 2.5 mins by DTNB reagent based UV-spectrometric method
Cholinesterase [3] = target: T1, Cholinesterase; assay: Inhibition of human plasma BChE assessed as half life for enzyme-inhibitor […] at IC>85 using butyrylthiocholine iodide as substrate incubated for 1 hr prior to compound dilution further incubated for 1 to 40 mins and subsequent substrate addition and measured after 2.5 mins by DTNB reagent based UV-spectrometric method
[4] = target: Cholinesterases; ACHE & BCHE (Homo sapiens) (UniProt P06276+P22303); assay: Selectivity index, ratio of IC50 for inhibition of human erythrocyte AChE to IC50 for inhibition of human plasma BChE; assay type: protein assay
[5] = target: Acetylcholinesterase (Homo sapiens) (UniProt P22303); assay: Inhibition of human erythrocyte AChE at 10 uM using acetylthiocholine iodide as substrate preincubated for 20 mins followed by substrate addition and measured after 2.5 mins by DTNB reagent based spectrometric method relative to control
Cholinesterase [6] = target: T1, Cholinesterase; assay: Inhibition of human plasma BChE assessed as carbamylation by measuring rate constant for […] formation using butyrylthiocholine iodide as substrate preincubated for 5 to 40 mins followed by substrate addition and measured after 2.5 mins by DTNB reagent based UV-spectrometric method
Cholinesterase [7] = target: T1, Cholinesterase; assay: Inhibition of human plasma BChE assessed as carbamylation by measuring rate constant for inhibitor-enzyme complex formation using butyrylthiocholine iodide as substrate preincubated for 5 to 40 mins followed by substrate addition and measured after 2.5 mins by DTNB reagent based UV-spectrometric method
HT-22 [8] = assay: Neurotoxicity in mouse HT22 cells assessed as reduction in cell viability up to 25 uM measured after 24 hrs by MTT assay; assay type: toxicity, cell-based; conditions: ht-22, 24 h
HT-22 [9] = assay: Neuroprotection against glutamate-induced cell death in mouse HT22 cells assessed as increase in cell viability measured after 24 hrs by MTT assay; assay type: functional, cell-based
[10] = Toxicity in oligomerized-amyloid beta (25 to 35)-induced Swiss mouse model of Alzheimer's disease assessed as effect on body weight gain at 0.3 to 3 mg/kg, ip administered once daily for 7 days measured daily during compound dosing; assay type: organism-based; conditions: in vivo, 168 h
Mus musculus [11] = assay: Neuroprotection against oligomerized-amyloid beta (25 to 35)-induced Swiss mouse model of Alzheimer's disease assessed as improvement in spontaneous alternation at 0.3 mg/kg, ip administered once daily for 7 days measured on day 8 by Y-maze test; assay type: functional, organism-based
Mus musculus [12] = assay: Neuroprotection against oligomerized-amyloid beta (25 to 35)-induced Swiss mouse model of Alzheimer's disease assessed as increase in number of arm entries at 0.3 to 3 mg/kg, ip administered once daily for 7 days measured on day 8 by Y-maze test; assay type: functional, organism-based
Mus musculus [13] = assay: Neuroprotection against oligomerized-amyloid beta (25 to 35)-induced Swiss mouse model of Alzheimer's disease assessed as increase in retention latency time at 0.3 to 3 mg/kg, ip administered once daily for 7 days measured 48 to 72 hrs post-last dose by step-through passive avoidance test; assay type: functional, organism-based
Mus musculus [14] = assay: Effect on latency time during training in Swiss mouse model of Alzheimer's disease assessed as increase in retention latency time at 0.3 to 3 mg/kg, ip administered once daily for 7 days measured 48 hrs post-last dose by step-through passive avoidance test; assay type: ADME, organism-based; conditions: in vivo
Mus musculus [15] = assay: Effect on shock sensitivity during training in Swiss mouse model of Alzheimer's disease assessed as increase in retention latency time at 0.3 to 3 mg/kg, ip administered once daily for 7 days measured 48 hrs post-last dose by step-through passive avoidance test; assay type: ADME, organism-based; conditions: in vivo
Mus musculus [16] = assay: Neuroprotection against oligomerized-amyloid beta (25 to 35)-induced Swiss mouse model of Alzheimer's disease assessed as improvement in spontaneous alternation at 1 mg/kg, ip administered once daily for 7 days measured on day 8 by Y-maze test; assay type: functional, organism-based
Mus musculus [17] = assay: Neuroprotection against oligomerized-amyloid beta (25 to 35)-induced Swiss mouse model of Alzheimer's disease assessed as improvement in spontaneous alternation at 0.3 to 3 mg/kg, ip administered once daily for 7 days measured on day 8 by Y-maze test; assay type: functional, organism-based
Mus musculus [18] = assay: Neuroprotection against oligomerized-amyloid beta (25 to 35)-induced Swiss mouse model of Alzheimer's disease assessed as improvement in spontaneous alternation at 3 mg/kg, ip administered once daily for 7 days measured on day 8 by Y-maze test; assay type: functional, organism-based
Mus musculus [19] = assay: Neuroprotection against oligomerized-amyloid beta (25 to 35)-induced Swiss mouse model of Alzheimer's disease assessed as increase in retention latency time at 1 to 3 mg/kg, ip administered once daily for 7 days measured 48 to 72 hrs post-last dose by step-through passive avoidance test; assay type: functional, organism-based
HT-22 [20] = assay: Neuroprotection against glutamate-induced cell death in mouse HT22 cells assessed as increase in cell viability at 5 uM measured after 24 hrs by MTT assay; assay type: functional, cell-based
Mus musculus [21] = assay: Neuroprotection against oligomerized-amyloid beta (25 to 35)-induced Swiss mouse model of Alzheimer's disease assessed as improvement in spontaneous alternation at 1 to 3 mg/kg, ip administered once daily for 7 days measured on day 8 by Y-maze test; assay type: functional, organism-based

Chain of Acetylcholinesterase (Homo sapiens) (P22303 whole entry): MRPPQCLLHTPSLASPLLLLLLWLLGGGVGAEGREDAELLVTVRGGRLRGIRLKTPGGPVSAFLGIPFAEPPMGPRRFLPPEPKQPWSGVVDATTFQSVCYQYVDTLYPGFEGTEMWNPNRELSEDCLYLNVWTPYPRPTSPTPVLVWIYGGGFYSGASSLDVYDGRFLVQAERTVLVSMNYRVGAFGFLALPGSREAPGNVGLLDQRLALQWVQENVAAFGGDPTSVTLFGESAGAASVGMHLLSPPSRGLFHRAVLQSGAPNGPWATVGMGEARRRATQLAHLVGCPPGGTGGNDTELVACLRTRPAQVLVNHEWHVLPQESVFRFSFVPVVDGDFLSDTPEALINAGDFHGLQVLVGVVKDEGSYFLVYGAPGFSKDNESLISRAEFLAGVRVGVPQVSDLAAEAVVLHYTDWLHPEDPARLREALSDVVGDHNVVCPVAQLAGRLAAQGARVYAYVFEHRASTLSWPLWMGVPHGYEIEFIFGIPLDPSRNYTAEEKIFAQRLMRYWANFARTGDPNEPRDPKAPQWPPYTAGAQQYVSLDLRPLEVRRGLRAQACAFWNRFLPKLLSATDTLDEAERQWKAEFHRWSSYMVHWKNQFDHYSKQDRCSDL
T1 sequence (P06276 whole entry): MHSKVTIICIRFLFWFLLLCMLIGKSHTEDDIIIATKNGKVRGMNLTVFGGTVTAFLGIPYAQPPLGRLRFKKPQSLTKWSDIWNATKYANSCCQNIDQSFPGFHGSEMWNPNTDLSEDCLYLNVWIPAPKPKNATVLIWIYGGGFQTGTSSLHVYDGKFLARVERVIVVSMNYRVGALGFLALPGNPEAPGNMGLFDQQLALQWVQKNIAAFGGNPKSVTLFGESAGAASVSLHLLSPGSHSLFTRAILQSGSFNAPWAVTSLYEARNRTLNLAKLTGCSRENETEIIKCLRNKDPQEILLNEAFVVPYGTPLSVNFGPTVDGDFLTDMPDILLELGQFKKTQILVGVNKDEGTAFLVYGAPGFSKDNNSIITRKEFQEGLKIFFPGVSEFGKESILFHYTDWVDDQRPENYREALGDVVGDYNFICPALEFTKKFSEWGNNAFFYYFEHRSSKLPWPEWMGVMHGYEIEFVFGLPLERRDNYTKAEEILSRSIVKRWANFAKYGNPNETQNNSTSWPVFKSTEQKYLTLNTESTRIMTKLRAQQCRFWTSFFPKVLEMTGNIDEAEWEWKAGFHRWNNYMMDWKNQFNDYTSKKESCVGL
Chain of Cholinesterases; ACHE & BCHE (Homo sapiens) (P06276 whole entry, looked up): as the sequence (P06276 whole entry) above
Chain of Cholinesterases; ACHE & BCHE (Homo sapiens) (P22303 whole entry, looked up): as the sequence (P22303 whole entry) above

## CN1c2ccc(OC(=O)NCCCCCCN3CCCC3)cc2CN2CCc3ccccc3C21 (stereo not drawn)
Cholinesterase [1]
  IC50: 0.0343 µM
Cholinesterase [2]
  K: 0.98 h⁻¹
Cholinesterase [3]
  T1/2: 0.71 h
[4]
  Ratio IC50: 26

## CN1c2ccc(OC(=O)NCCCCCCN3CCOCC3)cc2CN2CCc3ccccc3C21 (stereo not drawn)
Cholinesterase [1]
  IC50: 0.0493 µM
[5]
  inhibition: 26.1%
Cholinesterase [6]
  K: 202 nM
Cholinesterase [7]
  K: 0.16 min⁻¹
Cholinesterase [2]
  K: 0.042 h⁻¹
Cholinesterase [3]
  T1/2: 16.5 h
HT-22 [8]
  Activity: Non-Toxic
HT-22 [9]
  Activity: Dose-dependent effect
[10]
  Activity: Non-Toxic
Mus musculus [11]
  Activity: Active
Mus musculus [12]
  Activity: Active
Mus musculus [13]
  Activity: Active
Mus musculus [14]
  Activity: Non-Toxic
Mus musculus [15]
  Activity: Non-Toxic
[4]
  Ratio IC50: > 1000

## CN1c2ccc(OC(=O)NCCCCN3CCOCC3)cc2CN2CCc3ccccc3C21 (stereo not drawn)
Cholinesterase [1]
  IC50: 0.0506 µM
[5]
  inhibition: 16.3%
Cholinesterase [2]
  K: 0.48 h⁻¹
Cholinesterase [3]
  T1/2: 1.44 h
[4]
  Ratio IC50: > 1000

## CN1c2ccc(OC(=O)NCCCCCCCCCCN3CCOCC3)cc2CN2CCc3ccccc3C21 (stereo not drawn)
Cholinesterase [1]
  IC50: 0.0115 µM
[5]
  inhibition: 17.8%
[4]
  Ratio IC50: > 1000

## CN1c2ccc(OC(=O)NCCCCCCN3CCc4ccccc4C3)cc2CN2CCc3ccccc3C21 (stereo not drawn)
Cholinesterase [1]
  IC50: 0.0267 µM
[5]
  inhibition: 0.4%
Cholinesterase [6]
  K: 3.6 nM
Cholinesterase [7]
  K: 0.18 min⁻¹
Cholinesterase [2]
  K: 0.025 h⁻¹
Cholinesterase [3]
  T1/2: 27.7 h
HT-22 [8]
  Activity: Non-Toxic
HT-22 [9]
  Activity: Dose-dependent effect
[10]
  Activity: Non-Toxic
Mus musculus [16]
  Activity: Active
Mus musculus [12]
  Activity: Active
Mus musculus [13]
  Activity: Active
Mus musculus [14]
  Activity: Non-Toxic
Mus musculus [15]
  Activity: Non-Toxic
[4]
  Ratio IC50: > 1000

## CN1c2ccc(O)cc2CN2CCc3ccccc3C21 (stereo not drawn)
[10]
  Activity: Non-Toxic
Mus musculus [17]
  Activity: inactive
Mus musculus [12]
  Activity: Active
Mus musculus [13]
  Activity: inactive
Mus musculus [14]
  Activity: Non-Toxic
Mus musculus [15]
  Activity: Non-Toxic

## CN1c2ccc(OC(=O)NCCCN3CCOCC3)cc2CN2CCc3ccccc3C21 (stereo not drawn)
[5]
  inhibition: 2.1%
[4]
  Ratio IC50: > 100

## CN1c2ccc(OC(=O)NCCN3CCc4ccccc4C3)cc2CN2CCc3ccccc3C21 (stereo not drawn)
Cholinesterase [1]
  IC50: 1.72 µM
[5]
  inhibition: 3.9%
Cholinesterase [6]
  K: > 200000 nM
Cholinesterase [7]
  K: > 20 min⁻¹
[4]
  Ratio IC50: > 10

## CN1c2ccc(OC(=O)NCCN3CCOCC3)cc2CN2CCc3ccccc3C21 (stereo not drawn)
[5]
  inhibition: 4.1%
[4]
  Ratio IC50: > 10

## CN1c2ccc(OC(=O)NCCCCCCn3cnc4ccccc43)cc2CN2CCc3ccccc3C21 (stereo not drawn)
[5]
  inhibition: 28.8%
Cholinesterase [6]
  K: 7.7 nM
Cholinesterase [7]
  K: 0.26 min⁻¹
Cholinesterase [2]
  K: 0.45 h⁻¹
Cholinesterase [3]
  T1/2: 1.55 h
[4]
  Ratio IC50: > 1000

## CN1c2ccc(OC(=O)NCCCCCCCCN3CCOCC3)cc2CN2CCc3ccccc3C21 (stereo not drawn)
Cholinesterase [1]
  IC50: 0.0198 µM
[5]
  inhibition: 13.6%
Cholinesterase [2]
  K: 1.58 h⁻¹
Cholinesterase [3]
  T1/2: 0.44 h
[4]
  Ratio IC50: > 1000

## CN1c2ccc(OC(=O)NCCCCCCCCCCN3CCc4ccccc4C3)cc2CN2CCc3ccccc3C21 (stereo not drawn)
[5]
  inhibition: 5.7%
Cholinesterase [6]
  K: 5.68 nM
Cholinesterase [7]
  K: 0.25 min⁻¹
[4]
  Ratio IC50: > 1000

## CN1c2ccc(OC(=O)NCCCCCCn3ccnc3)cc2CN2CCc3ccccc3C21 (stereo not drawn)
Cholinesterase [1]
  IC50: 0.0133 µM
[5]
  inhibition: 9.1%
Cholinesterase [6]
  K: 13.1 nM
Cholinesterase [7]
  K: 0.31 min⁻¹
Cholinesterase [2]
  K: 0.82 h⁻¹
Cholinesterase [3]
  T1/2: 0.85 h
[4]
  Ratio IC50: > 1000

## CN1c2ccc(OC(=O)NCCCCCCN3CCCCC3)cc2CN2CCc3ccccc3C21 (stereo not drawn)
Cholinesterase [1]
  IC50: 0.0837 µM
Cholinesterase [2]
  K: 0.123 h⁻¹
Cholinesterase [3]
  T1/2: 5.64 h
[4]
  Ratio IC50: 14

## CN1c2ccc(OC(=O)NCCCCN3CCc4ccccc4C3)cc2CN2CCc3ccccc3C21 (stereo not drawn)
Cholinesterase [1]
  IC50: 0.192 µM
[5]
  inhibition: 6%
Cholinesterase [2]
  K: 0.028 h⁻¹
Cholinesterase [3]
  T1/2: 24.8 h
[4]
  Ratio IC50: > 100

## CCCCCCCNC(=O)Oc1ccc2c(c1)CN(C)C(c1cccs1)N2C (stereo not drawn)
[10]
  Activity: Non-Toxic
Mus musculus [18]
  Activity: Active
Mus musculus [12]
  Activity: inactive
Mus musculus [19]
  Activity: Active
Mus musculus [14]
  Activity: Non-Toxic
Mus musculus [15]
  Activity: Non-Toxic

## CN1c2ccc(OC(=O)NCCCN3CCc4ccccc4C3)cc2CN2CCc3ccccc3C21 (stereo not drawn)
Cholinesterase [1]
  IC50: 1.16 µM
[5]
  inhibition: 6.4%
[4]
  Ratio IC50: > 10

## CN1c2ccc(OC(=O)NCCCCCCN3CCNCC3)cc2CN2CCc3ccccc3C21 (stereo not drawn)
Cholinesterase [1]
  IC50: 0.0806 µM
[5]
  inhibition: 35.5%
Cholinesterase [6]
  K: 121 nM
Cholinesterase [7]
  K: 0.32 min⁻¹
Cholinesterase [2]
  K: 1.44 h⁻¹
Cholinesterase [3]
  T1/2: 0.48 h
[4]
  Ratio IC50: > 100

## CN1c2ccc(OC(=O)NCCCCCCN3CCN(C(=O)OC(C)(C)C)CC3)cc2CN2CCc3ccccc3C21 (stereo not drawn)
Cholinesterase [1]
  IC50: 0.123 µM
[5]
  inhibition: 70.6%
Cholinesterase [6]
  K: 1550 nM
Cholinesterase [7]
  K: 0.7 min⁻¹
[4]
  Ratio IC50: > 10

## CCCCCCCNC(=O)Oc1ccc2c(c1)CN1CCc3ccccc3C1N2C (stereo not drawn)
Cholinesterase [7]
  K: 0.66 min⁻¹
HT-22 [8]
  Activity: Non-Toxic
HT-22 [20]
  Activity: Active
[10]
  Activity: Non-Toxic
Mus musculus [21]
  Activity: Active
Mus musculus [12]
  Activity: Active
Mus musculus [13]
  Activity: Active
Mus musculus [14]
  Activity: Non-Toxic
Mus musculus [15]
  Activity: Non-Toxic

## CN1c2ccc(OC(=O)NCCCCCCCCN3CCc4ccccc4C3)cc2CN2CCc3ccccc3C21 (stereo not drawn)
Cholinesterase [1]
  IC50: 0.0326 µM
[5]
  inhibition: 6.2%
Cholinesterase [2]
  K: 0.83 h⁻¹
Cholinesterase [3]
  T1/2: 0.84 h
[4]
  Ratio IC50: > 1000
